According to the CheMixHub ionic liquid set:
± gives the uncertainty stated by the source.

Assay: xn = mol fraction of the nth substance listed
Conditions: for electrical conductivity: 298.1 K

CC[n+]1ccn(C)c1C.O=S(=O)([N-]S(=O)(=O)C(F)(F)F)C(F)(F)F + COC(=O)OC
viscosity [mPa·s], 101.3 kPa
Conditions	288.15 K	293.15 K	298.15 K	303.15 K	308.15 K	313.15 K
x1 = 0.002023	0.685 ± 0.015	0.64 ± 0.014	0.601 ± 0.013	0.564 ± 0.012	0.532 ± 0.012	0.502 ± 0.011
x1 = 0.003635	0.702 ± 0.015	0.655 ± 0.014	0.613 ± 0.013	0.576 ± 0.013	0.542 ± 0.012	0.512 ± 0.011
x1 = 0.004511	0.715 ± 0.016	0.668 ± 0.015	0.625 ± 0.014	0.589 ± 0.013	0.556 ± 0.012	0.525 ± 0.011
x1 = 0.006328	0.731 ± 0.016	0.682 ± 0.015	0.637 ± 0.014	0.599 ± 0.013	0.563 ± 0.012	0.531 ± 0.012
x1 = 0.007386	0.745 ± 0.016	0.694 ± 0.015	0.65 ± 0.014	0.609 ± 0.013	0.573 ± 0.013	0.541 ± 0.012
x1 = 0.008644	0.76 ± 0.017	0.706 ± 0.015	0.66 ± 0.014	0.618 ± 0.014	0.58 ± 0.013	0.548 ± 0.012
x1 = 0.01069	0.79 ± 0.017	0.73 ± 0.016	0.681 ± 0.015	0.638 ± 0.014	0.603 ± 0.013	0.569 ± 0.012
x1 = 0.01174	0.798 ± 0.017	0.741 ± 0.016	0.691 ± 0.015	0.646 ± 0.014	0.607 ± 0.013	0.571 ± 0.012
x1 = 0.01299	0.815 ± 0.018	0.757 ± 0.017	0.705 ± 0.015	0.66 ± 0.014	0.619 ± 0.014	0.582 ± 0.013
x1 = 0.01405	0.825 ± 0.018	0.766 ± 0.017	0.714 ± 0.016	0.666 ± 0.015	0.625 ± 0.014	0.588 ± 0.013
x1 = 0.01538	0.844 ± 0.018	0.782 ± 0.017	0.728 ± 0.016	0.68 ± 0.015	0.637 ± 0.014	0.599 ± 0.013
x1 = 0.01591	0.848 ± 0.019	0.786 ± 0.017	0.731 ± 0.016	0.683 ± 0.015	0.639 ± 0.014	0.601 ± 0.013
x1 = 0.01645	0.854 ± 0.019	0.791 ± 0.017	0.736 ± 0.016	0.687 ± 0.015	0.643 ± 0.014	0.605 ± 0.013
x1 = 0.01685	0.86 ± 0.019	0.796 ± 0.017	0.74 ± 0.016	0.691 ± 0.015	0.647 ± 0.014	0.608 ± 0.013
x1 = 0.01703	0.864 ± 0.019	0.8 ± 0.018	0.744 ± 0.016	0.694 ± 0.015	0.651 ± 0.014	0.611 ± 0.013
x1 = 0.02124	0.91 ± 0.02	0.841 ± 0.018	0.781 ± 0.017	0.727 ± 0.016	0.681 ± 0.015	0.639 ± 0.014
x1 = 0.02489	0.946 ± 0.021	0.873 ± 0.019	0.81 ± 0.018	0.755 ± 0.016	0.706 ± 0.015	0.662 ± 0.014
x1 = 0.02663	0.965 ± 0.021	0.891 ± 0.019	0.826 ± 0.018	0.771 ± 0.017	0.72 ± 0.016	0.676 ± 0.015
x1 = 0.0275	0.978 ± 0.021	0.903 ± 0.02	0.837 ± 0.018	0.78 ± 0.017	0.729 ± 0.016	0.683 ± 0.015
x1 = 0.03106	1.005 ± 0.022	0.928 ± 0.02	0.86 ± 0.019	0.801 ± 0.017	0.75 ± 0.016	0.702 ± 0.015
x1 = 0.03264	1.017 ± 0.022	0.939 ± 0.021	0.871 ± 0.019	0.811 ± 0.018	0.759 ± 0.017	0.711 ± 0.016
x1 = 0.03671	1.052 ± 0.023	0.972 ± 0.021	0.902 ± 0.02	0.839 ± 0.018	0.784 ± 0.017	0.735 ± 0.016
x1 = 0.04003	1.084 ± 0.024	1.001 ± 0.022	0.928 ± 0.02	0.864 ± 0.019	0.807 ± 0.018	0.756 ± 0.017
x1 = 0.04547	1.132 ± 0.025	1.046 ± 0.023	0.97 ± 0.021	0.903 ± 0.02	0.843 ± 0.018	0.79 ± 0.017
x1 = 0.04804	1.154 ± 0.025	1.065 ± 0.023	0.989 ± 0.022	0.92 ± 0.02	0.859 ± 0.019	0.805 ± 0.018
x1 = 0.05983	1.271 ± 0.028	1.171 ± 0.026	1.086 ± 0.024	1.01 ± 0.022	0.942 ± 0.021	0.881 ± 0.019

OCC(F)(F)F + COP(=O)([O-])OC.Cn1cc[n+](C)c1
viscosity [mPa·s], 101 kPa
Conditions	298.15 K	333.15 K
x2 = 0.4904	42.9 ± 1.8	–
x2 = 0.803	158.2 ± 8.6	31.5 ± 1.3

CCCO + CS(=O)(=O)[O-].C[N+](C)(CCO)CCO
101 kPa, x2 = 0
Conditions	viscosity [mPa·s]
298.15 K	1.95 ± 0.12
303.15 K	1.73 ± 0.11
308.15 K	1.545 ± 0.093
313.15 K	1.383 ± 0.084
318.15 K	1.247 ± 0.075
323.15 K	1.136 ± 0.069

CC(=O)[O-].CC[n+]1ccn(C)c1 + CS(C)=O
100 kPa
Conditions	electrical conductivity [S/m]
x1 = 0.108	0.94 ± 0.04
x1 = 0.653	0.65 ± 0.03

CC[NH+](CC)CC.O=S(=O)([O-])O + CS(C)=O
101 kPa
Conditions	viscosity [mPa·s]
298.15 K, x1 = 0.011	3.84 ± 0.08
298.15 K, x2 = 0.0244	228 ± 4.7
298.15 K, x2 = 0.199	178 ± 3.7
298.15 K, x2 = 0.9539	9.02 ± 0.19
303.15 K, x1 = 0.011	3.01 ± 0.06
303.15 K, x2 = 0.653	40.58 ± 0.84
308.15 K, x2 = 0.2473	97.6 ± 2
308.15 K, x2 = 0.4004	74.6 ± 1.5

CC[n+]1ccn(C)c1.CS(=O)(=O)[O-] + CS(C)=O
101 kPa, x1 = 0.3333
Conditions	viscosity [mPa·s]
283.15 K	5.66 ± 0.57
288.15 K	5.04 ± 0.51
293.15 K	4.47 ± 0.45
298.15 K	3.94 ± 0.4
303.15 K	3.47 ± 0.35
308.15 K	3.04 ± 0.31
313.15 K	2.66 ± 0.27
318.15 K	2.33 ± 0.23
323.15 K	2.05 ± 0.21
328.15 K	1.81 ± 0.18
333.15 K	1.63 ± 0.16
338.15 K	1.49 ± 0.15
343.15 K	1.4 ± 0.14
348.15 K	1.36 ± 0.14
353.15 K	1.33 ± 0.13

CCCO + C[C@H](N)C(=O)[O-].C[N+](C)(C)CCO
100 kPa, x2 = 0
Conditions	viscosity [mPa·s]
288.12 K	2.19 ± 0.52
289.34 K	2.13 ± 0.51
290.54 K	2.07 ± 0.5
291.73 K	2 ± 0.48
292.91 K	1.95 ± 0.47
294.09 K	1.89 ± 0.45
295.27 K	1.84 ± 0.44
296.45 K	1.78 ± 0.43
297.63 K	1.73 ± 0.41
298.8 K	1.68 ± 0.4
299.98 K	1.63 ± 0.39
301.16 K	1.58 ± 0.38
302.33 K	1.52 ± 0.37
303.51 K	1.48 ± 0.36
304.68 K	1.43 ± 0.34
305.86 K	1.38 ± 0.33
307.04 K	1.34 ± 0.32
308.21 K	1.29 ± 0.31
